Laboratory results reported in PubChem BioAssay AID1963868 (Molecular Pharmacology Branch, DTP, NCI, 2024).

Test system: KRAS PDC tumor spheroids (HUVEC+MSC), viability
Experiment: Anticancer human tumor 254851-301-R-J1-PDC patient-derived colon carcinoma cell line growth inhibition [KRAS2]
Details: for IC50: curve of first compound; for viability, T/C: stronger effect = lower value; active = viability on the fitted dose curve at most 10% of control; inactive = the rest
Summary of the method: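 Combination screen of spheroid viability in tumor-cell co-cultures with endothelial (HUVEC) and mesenchymal stem cell stroma. Each agent was tested in half-log dilutions, topping at clinical Cmax or at 10 microM without a known Cmax.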

[1] = second compound 0.1 µM, first compound 0.0316 µM
[2] = second compound 0.1 µM, first compound 0.1 µM
[3] = second compound 0.316 µM, first compound 0.0316 µM
[4] = second compound 0.316 µM, first compound 0.1 µM
[5] = second compound 1 µM, first compound 0.0316 µM
[6] = second compound 1 µM, first compound 0.1 µM
[7] = second compound 3.16 µM, first compound 0.0316 µM
[8] = second compound 3.16 µM, first compound 0.1 µM
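Also: spheroids exposed to compounds for seven days before readout.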
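For viability, T/C in this document: 100% = DMSO vehicle control luminescence of the spheroids.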

CC(C)NCC(C(=O)N1CCN(c2ncnc3c2C(C)CC3O)CC1)c1ccc(Cl)cc1 (stereo not given) + C=CC(=O)N1CCN(c2nc(OCC3CCCN3C)nc3c2CCN(c2cccc4cccc(C)c24)C3)CC1CC#N
> 10000 nM: IC50 (second compound 0.0316 µM) | IC50 (second compound 0.1 µM) | IC50 (second compound 0.316 µM) | IC50 (second compound 1 µM)
85.7 nM: IC50 (second compound 3.16 µM)
inactive: viability, T/C (second compound 0.0316 µM, first compound 0.0316 µM) 96.9% | viability, T/C (second compound 0.0316 µM, first compound 0.1 µM) 96.1% | viability, T/C (second compound 0.0316 µM, first compound 0.316 µM) 87.4% | viability, T/C (second compound 0.0316 µM, first compound 1 µM) 98.2% | viability, T/C (second compound 0.0316 µM, first compound 3.16 µM) 95.8% | viability, T/C (second compound 0.0316 µM, first compound 10 µM) 94.7% | viability, T/C [1] 107% | viability, T/C [2] 101% | viability, T/C (second compound 0.1 µM, first compound 0.316 µM) 99.9% | viability, T/C (second compound 0.1 µM, first compound 1 µM) 77.1% | viability, T/C (second compound 0.1 µM, first compound 3.16 µM) 89.9% | viability, T/C (second compound 0.1 µM, first compound 10 µM) 92.1% | viability, T/C [3] 97.7% | viability, T/C [4] 93.9% | viability, T/C (second compound 0.316 µM, first compound 0.316 µM) 92% | viability, T/C (second compound 0.316 µM, first compound 1 µM) 95.9% | viability, T/C (second compound 0.316 µM, first compound 3.16 µM) 88.8% | viability, T/C (second compound 0.316 µM, first compound 10 µM) 87.6% | viability, T/C [5] 95.4% | viability, T/C [6] 98.5% | viability, T/C (second compound 1 µM, first compound 0.316 µM) 91.6% | viability, T/C (second compound 1 µM, first compound 1 µM) 86.3% | viability, T/C (second compound 1 µM, first compound 3.16 µM) 97.9% | viability, T/C (second compound 1 µM, first compound 10 µM) 86.2% | viability, T/C [7] 62% | viability, T/C [8] 48.2% | viability, T/C (second compound 3.16 µM, first compound 0.316 µM) 37% | viability, T/C (second compound 3.16 µM, first compound 1 µM) 18.1% | viability, T/C (second compound 3.16 µM, first compound 3.16 µM) 22.6% | viability, T/C (second compound 3.16 µM, first compound 10 µM) 8.5%

Cn1ncnc1[C@H]1c2n[nH]c(=O)c3cc(F)cc(c23)N[C@@H]1c1ccc(F)cc1 + COc1cc2nc(C)nc(NC(C)c3cc(N)cc(C(F)(F)F)c3)c2cc1OC1CCOC1
inactive: viability, T/C (second compound 0.1 µM, first compound 0.000316 µM) 111% | viability, T/C (second compound 0.1 µM, first compound 0.001 µM) 95.6% | viability, T/C (second compound 0.1 µM, first compound 0.00316 µM) 104% | viability, T/C (second compound 0.1 µM, first compound 0.01 µM) 100% | viability, T/C [1] 99.6% | viability, T/C [2] 101% | viability, T/C (second compound 0.316 µM, first compound 0.000316 µM) 95.9% | viability, T/C (second compound 0.316 µM, first compound 0.001 µM) 100% | viability, T/C (second compound 0.316 µM, first compound 0.00316 µM) 93.5% | viability, T/C (second compound 0.316 µM, first compound 0.01 µM) 80.9% | viability, T/C [3] 84.8% | viability, T/C [4] 89.5% | viability, T/C (second compound 1 µM, first compound 0.000316 µM) 86.9% | viability, T/C (second compound 1 µM, first compound 0.001 µM) 81.6% | viability, T/C (second compound 1 µM, first compound 0.00316 µM) 83.1% | viability, T/C (second compound 1 µM, first compound 0.01 µM) 86.4% | viability, T/C [5] 85.9% | viability, T/C [6] 81.3% | viability, T/C (second compound 3.16 µM, first compound 0.000316 µM) 86.5% | viability, T/C (second compound 3.16 µM, first compound 0.001 µM) 83.8% | viability, T/C (second compound 3.16 µM, first compound 0.00316 µM) 95.9% | viability, T/C (second compound 3.16 µM, first compound 0.01 µM) 86% | viability, T/C [7] 87.2% | viability, T/C [8] 80.9% | viability, T/C (second compound 10 µM, first compound 0.000316 µM) 77.9% | viability, T/C (second compound 10 µM, first compound 0.001 µM) 83% | viability, T/C (second compound 10 µM, first compound 0.00316 µM) 80.8% | viability, T/C (second compound 10 µM, first compound 0.01 µM) 78.1% | viability, T/C (second compound 10 µM, first compound 0.0316 µM) 69.2% | viability, T/C (second compound 10 µM, first compound 0.1 µM) 74.7%
> 100 nM: IC50 (second compound 0.1 µM) | IC50 (second compound 0.316 µM) | IC50 (second compound 1 µM) | IC50 (second compound 3.16 µM) | IC50 (second compound 10 µM)
